Reference: patent US10526418B2, “Modulators of ACYL-COA lysocardiolipin acyltransferase 1 (ALCAT1) and uses thereof” (priority 2012, dated 2020)

Columns and labels:
[1] = test system: phosphorylation of Akt and Erk in H9c2 cells; assay: Western blot analysis of phosphorylation of Akt and Erk in H9c2 cardiac cells stimulated with insulin; assay type: cell-based; conditions: vector control H9c2 cells, indicated doses of insulin, FIG. 17A
Method: FIGS. 17A-17B: H9c2 cardiac cells stably expressing ALCAT1 or vector control were stimulated with indicated doses of insulin (FIG. 17A) or with 100 nM of T3 for the indicated time (FIG. 17B), followed by analysis of phosphorylation of Akt, Erk, S6K1, and 4E-BP by western blot analysis using β-actin as an internal control. FIG. 17C: WT and KO mice were treated with vehicle or T4 for 28 days, followed by Western blot analysis of phosphorylation of Akt, GSK3α/β, and 4E-BP in cardiomyocytes by Western blot analysis using GAPDH as an internal control.
Oxidative Stress by ALCAT1 Regulates Akt-mTOR Signal Transduction Pathways in Cardiomyopathy: Hyperthyroidism leads to cardiomyopathy by stimulating protein synthesis in the cardiomyocytes. To identify molecular mechanisms underlying a role of ALCAT1 in hypertrophic growth, the effects of ALCAT1 overexpression and deficiency were analyzed on signal transduction pathways involved in cellular growth and proliferation, including phosphorylation of Akt, Erk, S6K, and 4E-BP1, in H9c2 cells and in mice with hyperthyroidism. Increased ROS levels lead to insulin resistance which plays a causative role in cardiac dysfunction. […] In support of the findings in H9c2 cells, short term treatment of mice with thyroid hormone stimulated cardiac Akt-mTOR phosphorylation in both ALCAT1 knockout mice and the WT mice (FIG. 20).

[2] = test system: MFN1 and MFN2 expression in C2C12 cells; assay: Western blot analysis of MFN1 and MFN2 expression in C2C12 cells stably expressing ALCAT1 or vector control, treated with H2O2; assay type: cell-based
Method: FIG. 7G: Western blot analysis of MFN1 and MFN2 expression in C2C12 cells stably expressing vector, ALCAT1, or ALCAT1 but were pretreated various doses (0, 1M, and 5M) of diphenyliodonium (DPI), an NADPH oxidase inhibitor, prior to treatment with 1.5 mM of H2O2.
The C2C12-A1 cells and vector control were treated with increasing doses of H2O2 as used in FIG. 7E, followed by analysis of MFN2 expression by western blot analysis.

Compound: insulin: hormone used to stimulate Akt and Erk phosphorylation in H9c2 cells
- phosphorylation of Akt and Erk [1]: dose-dependently stimulated phosphorylation of Akt and Erk

Compound: OO [H2O2, Hydrogen Peroxide]
- MFN1 and MFN2 expression ([2]; vector control C2C12 cells, increasing doses of H2O2, FIG. 7F): dose-dependently depleted MFN1 and MFN2 expression

Compound: c1ccc2c(c1)[I+]c1ccccc1-2 [DPI, diphenyleneiodonium]
- loss of MFN expression in response to H2O2 ([2]; C2C12-A1 cells (stably expressing ALCAT1) pre-incubated with DPI (0, 1M, and 5M) prior to 1.5 mM H2O2, FIG. 7G): dose-dependently prevented the loss of MFN expression
